The values that follow come from patent US12268710B2, “Method of treating severe forms of pulmonary hypertension” (ReversPAH LLC, priority 2019, dated 2025).

Entries after “also recorded” stand apart in the source; their conditions may differ.

Series [1] deals with Sugen/Hypoxia rats (SuHx) with established PAH. Put plainly: Sugen 5416/chronic hypoxia rat model of severe angio-obliterative PAH. The class given is in vivo. The protocol: Specifically, FIGS. 4A and B, which are from the paper which included Norbert F. Voelkel as a senior author, show the compared results of control rats, Sugen/Hypoxia rats (SuHx) with established PAH, and SuHx rats treated with TTM in an amount of 10 mg/kg every other day for 10 days. […] FIG. 5 provides the results, which compares the degree of obliteration of c-kit^+ expressing stem cells in the lung vessels of Sugen/Hypoxia rats (SuHx) treated with a vehicle (SuHx-vehicle) and Sugen/Hypoxia rats treated with TTM (SuHx-TTM) in an amount of 10 mg/kg every other day for 10 days. Third, copper plays a role in the alteration of genes of the cytochrome P450. The lung and, in particular, the lung vascular endothelial cells (EC) are involved in drug metabolism and the handling of toxic substances. It is known that cigarette smoke toxins highly up-regulate the expression of specific drug metabolizing genes, the genes of the cytochrome P450 super-family. There are 56 known cytochrome P450 genes coding for 56 isozymes. These enzymes metabolize 75% of all drugs in use, including all of the vasodilator drugs conventionally used for PAH treatment. These enzymes also are involved in cell growth and differentiation, in cholesterol and estrogen metabolism and for many years a role of these enzymes in the pathogenesis of cancers has been examined (in particular prostate, breast and lung cancer) (Kwapiszewska G et al, Circulation Research, submitted 2019). Norbert F. Voelkel discovered that the drug Sugen 5416, a component of the Sugen-induced rat models of angio-obliterative PAH, induces some of these cytochrome P450 isozyme genes more than 200-fold (Al-Husseini et al, Pulm Circ. 2015 March; 5(1); 101-116). […] Specifically, the vessel lumina are occluded in the not-treated animals (SuHx), whereas they have been reopened after the treated animals (SuHx+TTM) received 10 mg/kg TTM every other day for 10 days. […] The treatment lasted 3 weeks (21 days) with DEC being administered in an amount of 50 mg/kg daily treatment. Norbert F. Voelkel concludes that the anti-inflammatory drug DEC affects developing PAH and is partially effective once angio-obliterative PAH has been established.

Series [2] relates to patient with pulmonary veno-occlusive disease (PVOD). Put plainly: Low-dose MTX treatment of one patient with pulmonary veno-occlusive disease. The class given is in vivo, human. An excerpt:
Another possible co-drug is methotrexate. […] MTX is of particular interest because it is an inhibitor of the enzyme dihydrofolate reductase and thereby inhibits DNA, RNA and protein synthesis, which is the desired action in cancer treatment at high MTX doses. Norbert Voelkel has prescribed MTX for one patient with pulmonary veno-occlusive disease, which is a rare form of severe PH. […] The anti-inflammatory and immune system affecting action of MTX is accomplished with low doses. […] PVOD is a fatal and extremely rare PH disorder. […] Vasodilator-induced lung edema precludes the use of vasodilator drugs in these patients.

The test system of the next series is rodent models of PH. As to conditions: in vivo; cited from earlier work.
Series [3] relates to cytochrome P450 isozyme genes. Put plainly: Induction of cytochrome P450 isozyme genes by Sugen 5416. The following applies: Al-Husseini et al, Pulm Circ. 2015. The source says: Third, copper plays a role in the alteration of genes of the cytochrome P450. The lung and, in particular, the lung vascular endothelial cells (EC) are involved in drug metabolism and the handling of toxic substances. It is known that cigarette smoke toxins highly up-regulate the expression of specific drug metabolizing genes, the genes of the cytochrome P450 super-family. There are 56 known cytochrome P450 genes coding for 56 isozymes. These enzymes metabolize 75% of all drugs in use, including all of the vasodilator drugs conventionally used for PAH treatment. These enzymes also are involved in cell growth and differentiation, in cholesterol and estrogen metabolism and for many years a role of these enzymes in the pathogenesis of cancers has been examined (in particular prostate, breast and lung cancer) (Kwapiszewska G et al, Circulation Research, submitted 2019). Norbert F. Voelkel discovered that the drug Sugen 5416, a component of the Sugen-induced rat models of angio-obliterative PAH, induces some of these cytochrome P450 isozyme genes more than 200-fold (Al-Husseini et al, Pulm Circ. 2015 March; 5(1); 101-116). […] Specifically, the vessel lumina are occluded in the not-treated animals (SuHx), whereas they have been reopened after the treated animals (SuHx+TTM) received 10 mg/kg TTM every other day for 10 days.

The subject of series [4] is monocrotaline-induced pulmonary hypertension. As to conditions: through the bone morphogenetic protein signaling pathway; cited from earlier work.
Series [5] has as its system silica-induced lung inflammation and fibrosis. The following applies: by inhibiting T-helper 17 cell (TH 17); cited from earlier work.
A further series relates to colon cancer. The following applies: by apoptosis and cellular senescence; cited from earlier work.
Another series has as its system angiogenesis. As to conditions: high dosage; through the induction of apoptosis; cited from earlier work.
Series [6] deals with Sugen/Hypoxia rats (SuHx) with established PAH. The following applies: Farkas D. et al 2014; cited from earlier work.
Setting [7] is: DEC study 2015 (Al Husseini et al).
Where [8] appears, read: after lung vascular disease established, 50 mg/kg daily for 3 weeks (21 days).
[9] abbreviates: established severe PAH, treated for two weeks.

As to `CCN(CC)C(=O)N1CCN(C)CC1` [DEC, diethylcarbamazine], in series [1] (setting [7]), the “muscularization of pulmonary arterioles” value is recorded as “blunted” and the “number of fully obliterated lung vessels” value is “reduced”. The “occluded vessels (FIGS. 8A-C)” value in series [1] (SuHx+DEC vs SuHx) is on record as “reopens occluded vessels”. For the same molecule, in [1] (setting [8]), the “degree of PAH” value is listed as “reduced”, the “degree of perivascular inflammation” value is listed as “reduced” and the “number of obliterated arterioles” value is reported as “reduced”.

For the molecule `CN(Cc1cnc2nc(N)nc(N)c2n1)c1ccc(C(=O)N[C@@H](CCC(=O)O)C(=O)O)cc1` [MTX, Methotrexate], in [2], the “reversal of the PH” value is on record as “did not reverse the PH” and the survival entry was “prolonged survival”. Moreover, the “progression of the disease (PVOD)” value in [2] (low dose MTX) is reported as “arrested the proliferative progression; also recorded: halted”.

Regarding `O=c1c(O)c(-c2ccc(O)c(O)c2)oc2cc(O)cc(O)c12` [Quercetin], in the series with rodent models of PH, the “vascular remodeling in rodent models of PH” value is recorded as “inhibit”.

Take `Cc1cc(C)c(/C=C2\C(=O)Nc3ccccc32)[nH]1` [Sugen 5416]: in series [3], the “induction of some cytochrome P450 isozyme genes” value is reported as “more than 200 fold”.

For `[NH4+].[NH4+].[SH-].[SH-].[S]=[Mo]=[S]` [TTM, ammonium tetrathiomolybdate], in [1] (10 mg/kg every other day for 10 days), the “expression of integrin protein alpha v beta 3 in lung (FIGS. 4A, B)” value is on record as “reduced; also recorded: normalized”. The “lung vessel lumina / arterioles (immunohistochemistry, FIG. 2)” value in series [1] (10 mg/kg every other day for 10 days, intraperitoneal, SuHx+TTM vs SuHx) is on record as “reopened; also recorded: reopens lung arterioles”. In addition, in series [1] (10 mg/kg every other day for 10 days, vs SuHx-vehicle), the “number of c-kit+ precursor cells in the lung vascular lesions (FIG. 5)” value is given as “reduced the number of c-kit+ precursor cells”. Also, the “expression of anoikis marker protein BIM in lung tissue (FIG. 3)” value in series [1] (SuHx-TTM vs SuHx, referenced to beta-actin) is “upregulated”. Also, in [1] (TTM-treated SuHx rats), the “anoikis, evidenced by cells expressing the marker BIM” value is recorded as “induced anoikis”. Moreover, in series [1] (setting [9]), the occluded lung vessels entry is “reopening of occluded lung vessels”, the pulmonary arterial pressure entry is listed as “cut the pulmonary arterial pressure in half” and the “reversal of established severe PAH” value is given as “reversed the PAH”.

For the molecule `O=C(O)[C@H]1O[C@@H](Oc2cc3oc(-c4ccccc4)cc(=O)c3c(O)c2O)[C@H](O)[C@@H](O)[C@@H]1O` [baicalin], the monocrotaline-induced pulmonary hypertension entry in series [4] was “attenuate”. In addition, the “silica-induced lung inflammation and fibrosis” value in series [5] is given as “alleviate”. Also, the colon cancer result in the series with colon cancer is on record as “inhibit colon cancer”. Moreover, the angiogenesis result in the series on angiogenesis was “inhibit angiogenesis”.

Regarding `S=C(S)N1CCCC1` [pyrrolidine dithiocarbamate], the “reversal of established angio-obliterative PAH” value in series [6] is reported as “reverse established angio-obliterative PAH”.
